For `CCN(C)/C=N/c1cc(C)c(C(=O)n2ccc3cc(C(F)(F)F)ccc32)cc1C`, the melting point (as a rule, the temperature, or range, at which the solid turns liquid) was in the range of 89 to 92 °C.
Take `CCN(C)/C=N/c1cc(C)c(C(=O)Nc2ccccc2)cc1C`: the melting point lay within 147 to 149 °C.

Source of the values: patent US20240023549A1 (published 2024).
